Laboratory results published in PubChem BioAssay (NCI).
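Protocol summary: plate cells (96-well), add compound at 5 concentrations, incubate 48 h, interpolate endpoints linearly. Here, GI50 denotes the concentration required for 50% inhibition of growth. TGI denotes the concentration required for complete inhibition of growth.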

How the values were obtained:
Assay in all cases: growth of human tumour cells (NCI), 48 h
T-47D breast = tested on: T-47D breast
RXF 393 renal = tested on: RXF 393 renal
NCI-H522 lung = tested on: NCI-H522 lung
CCRF-CEM leukemia = tested on: CCRF-CEM leukemia
SF-295 CNS = tested on: SF-295 CNS
SK-MEL-2 melanoma = tested on: SK-MEL-2 melanoma
SNB-75 CNS = tested on: SNB-75 CNS
786-0 renal = tested on: 786-0 renal

Row | Molecule | GI50 (T-47D breast) | TGI (T-47D breast) | GI50 (RXF 393 renal) | TGI (RXF 393 renal) | GI50 (NCI-H522 lung) | TGI (NCI-H522 lung) | GI50 (CCRF-CEM leukemia) | TGI (CCRF-CEM leukemia) | GI50 (SF-295 CNS) | TGI (SF-295 CNS) | GI50 (SK-MEL-2 melanoma) | TGI (SK-MEL-2 melanoma) | GI50 (SNB-75 CNS) | TGI (SNB-75 CNS) | GI50 (786-0 renal) | TGI (786-0 renal)
1 | Cc1cc2cc3cc(C)c(N)cc3[n+](C)c2cc1N | 1.06 µM | 5.44 µM | 0.584 µM | 4.33 µM | 3.24 µM | 9.31 µM | 1.36 µM | 17.5 µM | 1.56 µM | 11.4 µM | 3.31 µM | 8.1 µM | 1.75 µM | 14.4 µM | 2.6 µM | 11.5 µM
2 | O=C(O)c1ccccc1-c1ccccc1C(=O)Nc1ccc2c(c1)[nH]c(=O)c1ccccc12 | – | > 100 µM | – | > 100 µM | – | > 100 µM | – | > 100 µM | – | > 100 µM | – | > 100 µM | – | > 100 µM | – | > 100 µM
3 | COc1cc(/C=C2\C(=O)N(c3ccccc3)c3ccccc32)cc(OC)c1OC | 5.02 µM | > 100 µM | 0.107 µM | 2.87 µM | 6.31 µM | 23.3 µM | 1.75 µM | 7.78 µM | 17.8 µM | 81.3 µM | 11.7 µM | 30.7 µM | 4.82 µM | 18.8 µM | 6.67 µM | 21.2 µM
4 | O=C(NCCNc1nccc(-c2c(-c3ccc(F)cc3)nc3sccn23)n1)c1ccccc1 | 1.91 µM | 20.9 µM | 6.19 µM | 28.3 µM | 11.1 µM | 27.4 µM | 3.83 µM | 36.3 µM | 6.97 µM | 27.5 µM | 8.75 µM | 39.3 µM | 7.27 µM | 62.5 µM | 15.3 µM | > 100 µM
5 | Clc1ccc(C2=NN[C@H](c3cn(-c4ccccc4)nc3-c3ccccc3)C2)cc1 | 3.91 µM | 18.8 µM | 2.48 µM | 8.08 µM | 4.64 µM | 28.4 µM | 8.23 µM | 45.3 µM | 3.36 µM | 13.2 µM | 4.85 µM | 16.3 µM | 2.15 µM | 5.29 µM | 4.88 µM | 18.6 µM
6 | Cc1ccc(-c2nc(N)c(C#N)c3c2CCOc2c-3ccc3ccccc23)cc1 | 0.954 µM | 45.9 µM | 0.266 µM | 6.29 µM | 0.507 µM | > 100 µM | 0.224 µM | 1.36 µM | 0.144 µM | 1.87 µM | – | – | 5.02 µM | > 100 µM | 0.363 µM | 12.7 µM
7 | COc1cccc(Cn2c(-c3nonc3NC(C)=O)nc3ccccc32)c1 | 6.17 µM | > 100 µM | 1.92 µM | 5.74 µM | 2.95 µM | 90.3 µM | > 100 µM | > 100 µM | 1.85 µM | 78.7 µM | 3.07 µM | 18.9 µM | 0.144 µM | 3.85 µM | 10.4 µM | > 100 µM
8 | CCCCCCCCCCCCCCCCCC(=O)OCC(COC1OC(CS(=O)(=O)O)C(O)C(O)C1O)OC(=O)CCCCCCCCCCCCCCCCC (centres undefined) | – | > 100 µM | – | > 100 µM | – | > 100 µM | – | > 100 µM | – | > 100 µM | – | – | – | > 100 µM | – | > 100 µM
9 | N#C/C(=C1C=C/C(=N\O)C(Cl)=C\1)c1ccccc1 | 0.6 µM | 11.3 µM | 4.72 µM | 18.2 µM | 1.98 µM | 7.92 µM | 0.37 µM | 2.37 µM | 3.74 µM | > 100 µM | – | – | 3.5 µM | 20.5 µM | 0.745 µM | 11.9 µM
10 | N#CCCSC(=S)C1CCCC1=N (centres undefined) | – | > 100 µM | – | > 100 µM | – | > 100 µM | – | – | – | > 100 µM | – | > 100 µM | – | 94.4 µM | – | > 100 µM
11 | Cc1cc(C)c2nc3nc(C)cc(C)c3c(N)c2c1 | 5.89 µM | 34.2 µM | 6.64 µM | 27.5 µM | 5.46 µM | 22.6 µM | 9.33 µM | 45.7 µM | 2.4 µM | 12 µM | 6.89 µM | 21.7 µM | 4.86 µM | 18.3 µM | 4.07 µM | 17.4 µM
12 | Cn1ccnc1C(=O)/C=C/c1ccc(CC(=O)Nc2ccc(F)cc2)cc1 | 8.34 µM | > 25 µM | 3.89 µM | 7.97 µM | 3.34 µM | 8.41 µM | 2 µM | > 25 µM | 4.55 µM | 19.1 µM | 7.01 µM | 23.7 µM | 3.74 µM | > 25 µM | 1.37 µM | 7.09 µM
13 | Cc1sc(NC2=NC(=O)/C(=C\c3ccccc3)S2)nc1-c1nc(NC2=NC(=O)/C(=C\c3ccccc3)S2)sc1C | 28.2 µM | > 50 µM | > 24.2 µM | > 40.2 µM | 22.3 µM | > 50 µM | 9.41 µM | 35.6 µM | 13.2 µM | > 40.7 µM | > 35.1 µM | > 50 µM | – | – | 11.4 µM | 33.4 µM
14 | Cc1ccc(NC2=C(Cl)C(=O)N(Cc3ccccc3)C2=O)cc1Cl | 4.3 µM | 25.3 µM | 2.33 µM | 10.6 µM | 2.97 µM | 15.4 µM | 4.23 µM | 19.4 µM | 7.66 µM | 22.5 µM | – | – | – | – | 6.39 µM | 21 µM
15 | O=C1NC(c2c(Cl)cccc2Cl)Nc2ccccc21 (centres undefined) | – | > 100 µM | – | > 100 µM | – | > 100 µM | – | – | – | > 100 µM | – | > 100 µM | – | 37.4 µM | – | > 100 µM
16 | O=C(O)c1c[nH]c2c(OCc3ccccc3)c3ccccc3c(O)c2c1=O | 21.5 µM | 73.8 µM | 23.4 µM | 45.6 µM | 25.7 µM | > 100 µM | 10 µM | 34.7 µM | 13 µM | 27.8 µM | – | – | 19.5 µM | 43.1 µM | 21.7 µM | 43.9 µM
17 | CC(C)n1c(=O)n(C)c2cnc3cc(F)c(-c4ccc(OCCCN5CCCCC5)nc4)cc3c21 | 9.65 µM | 38.8 µM | – | – | 18.6 µM | 49.6 µM | 9.9 µM | 31.8 µM | 3.99 µM | 16.4 µM | 14.4 µM | 30.2 µM | 4.24 µM | 18.1 µM | 12.9 µM | 37.9 µM
18 | H-HIIKKIRTWYRKAWHVLGKV-NH2 | – | – | 4.23 µM | 25.1 µM | 11.1 µM | 63.3 µM | 3.71 µM | > 100 µM | 4.8 µM | 22.8 µM | 5.31 µM | 28.2 µM | 11.9 µM | 30.4 µM | 3.37 µM | 16.6 µM
19 | C=C(C)[C@@H]1CC[C@]2(C(=O)O)CC[C@]3(C)[C@H](CC[C@@H]4[C@@]5(C)C/C(=C/c6ccc(OC)cc6)C(=O)C(C)(C)[C@@H]5CC[C@]43C)[C@@H]12 | 2.84 µM | 26.7 µM | 2.1 µM | 5.26 µM | 1.97 µM | 6.65 µM | – | – | 1.71 µM | 4.45 µM | 2.38 µM | 6.29 µM | 2.68 µM | 27.1 µM | 2.83 µM | 12.1 µM
20 | CCC(c1ccc2cc(O)ccc2c1)C(C)(C)C(=O)O (centres undefined) | – | > 100 µM | – | > 100 µM | – | > 100 µM | – | – | – | > 100 µM | – | > 100 µM | – | > 100 µM | – | > 100 µM
21 | Cc1cc(=O)oc2c(OS(C)(=O)=O)c(OS(C)(=O)=O)ccc12 | – | – | – | – | – | > 100 µM | – | > 100 µM | – | > 100 µM | – | > 100 µM | – | – | – | > 100 µM
22 | Oc1ccc(-c2cn3cc(Cl)sc3n2)cc1 | – | – | > 100 µM | > 100 µM | 32.6 µM | > 100 µM | 12.1 µM | 39.8 µM | 47.3 µM | > 100 µM | > 100 µM | > 100 µM | – | – | 18.2 µM | 67.1 µM
23 | Nc1ccc(-c2nc3ccccc3o2)cc1S | – | – | 29.4 µM | 59.6 µM | 35.5 µM | > 100 µM | 14 µM | 43.3 µM | 13.6 µM | 28.8 µM | 42.4 µM | > 100 µM | – | – | 14.5 µM | 27.6 µM
24 | COC1=CC(c2ccc[nH]2)=N/C1=C\c1[nH]c(C)c(C(C)=O)c1C | 2.75 µM | 19.2 µM | – | – | 1.6 µM | – | 0.0183 µM | > 100 µM | 10 µM | > 100 µM | 1.99 µM | 6.63 µM | – | – | 0.309 µM | 1.62 µM
25 | COc1ccc(-c2nc(N3CCOCC3)c3sc(CN(C)c4ncc(C(=O)NO)cn4)cc3n2)cn1 | < 0.01 µM | 0.0332 µM | < 0.0122 µM | 0.0453 µM | – | – | < 0.01 µM | 1.53 µM | < 0.01 µM | 0.042 µM | 0.02 µM | 0.0799 µM | < 0.01 µM | 0.152 µM | 0.0313 µM | 0.171 µM
26 | COc1cc(-n2cnc(-c3ccc(Cl)cc3)c2)cc(OC)c1OC | – | – | – | – | 15.6 µM | 34.3 µM | 21.4 µM | 44.8 µM | 17.6 µM | 38.1 µM | 18.3 µM | 40.1 µM | 16.5 µM | 34.8 µM | > 100 µM | > 100 µM
